Measured values reported in patent US11622966B2 (A2A Pharmaceuticals, Inc., priority 2018, dated 2023).
pIC50: −log10 of the molar value. “Also recorded” adds a separate entry of the source.

Assays:
[1] = Kinetic solubility in sodium phosphate buffer; assay type: physicochemical; conditions: sodium phosphate buffer pH 7.4, 25° C., 2 h
[2] = tested on: NCI-60 human cancer cell line panel; assay: NCI-60 cancer cell line panel five-dose screening (SRB); assay type: cell-based; conditions: read-out: GI50 (50% growth inhibition), NCI-60 five-dose screen, ~90% / almost all cell lines
Protocol: Detailed screening methodology can be accessed from the National Cancer Institute webpage. Briefly, 24 h after cell seeding into 96-well plates, they were treated with 5-log M concentration range of the compound for 2 days. Cytotoxicity was assessed using sulphorhodamine B (SRB) assay.

[3] = Stability in human liver microsomes; assay type: in vitro ADME; conditions: HLM
[4] = tested on: normal breast epithelial cells, MCF-12A; assay: Cell viability assay, normal breast cell line; assay type: cell-based
Protocol: Next, the specificity of BO-264 towards cancer cell lines over normal cells were tested.
(§1) KHS101 and SPL-B were dissolved in 100% DMSO to yield a stock concentration of 50 mM. Newly synthesized molecules were dissolved in 100% DMSO to yield a stock concentration of 10 mM. For cell viability assay, JIMT-1 (3×10^3 cells/well), BT-474 T-DM1R (6×10^3 cells/well), MDA-MB-436 (4×10^3 cells/well), MDA-MB-157 (3×10^3 cells/well) and MCF-12A (5×10^3 cells/well) cells were seeded, and 24 hours after cell seeding inhibitor treatments were performed at different concentrations. Cell viability was measured 72 hours after treatment with Cell Titer Glo assay as recommended by the manufacturer.

[5] = tested on: JIMT-1, MDA-MB-436, MDA-MB-157 and BT-474 T-DM1R cell lines; assay: Cell viability assay (Cell Titer Glo), breast cancer cell line panel; assay type: cell-based, human; conditions: all cell lines tested, 72 hours, Cell Titer Glo (FIG. 6A)
[6] = tested on: JIMT-1 breast cancer cell lines; assay: Cell viability assay (Cell Titer Glo), JIMT-1; assay type: cell-based; conditions: Homo sapiens, JIMT-1 breast cancer cells, 72 hours, read-out: IC50, proliferation / cell viability of JIMT-1
Protocol: As mentioned before, none of the available TACC3 inhibitors, such as KHS101 and SPL-B has yet advanced to the clinical studies. […] For this purpose, it was performed in-house screening of a series of small molecules by testing their anti-proliferative effects in breast cancer cells in which TACC3 is aberrantly expressed (Ma et al., 2003; Song et al., 2018). Specifically, JIMT-1 cell line was chosen for screening the effect of compounds in cell viability due to its high TACC3 protein level compared to other tested breast cancer cell lines as well as its in vivo tumorigenicity (Saatci et al., 2018; Tanner et al., 2004) (will be discussed in FIGS. 8 and 9-10, respectively).
as §1

TACC3 = biological target: T1, TACC3 (Homo sapiens, UniProt Q9Y6A5); assay: Target engagement assay (drug-target stabilization with increased temperature); assay type: binding; conditions: JIMT-1 cells
T1 construct: endogenous in cells; host or cells: JIMT-1

[7] = Stability in mouse liver microsomes; assay type: in vitro ADME; conditions: MLM
JIMT-1 cells [8] = assay: Western blot of mitotic arrest, DNA damage and apoptosis markers; assay type: cell-based, human; conditions: 24 hours, Western blot (FIG. 6C)
JIMT-1 xenografts = assay: Breast cancer xenograft experiments (JIMT-1 in mammary fat pad); assay type: in vivo, female athymic nude mice
Protocol: Six-to-eight-week-old female athymic nude mice were housed with a temperature-controlled and 12-hour light/12-hour dark cycle environment. This study was carried out in accordance with Institutional Animal Care and Use Committee of Bilkent University and performed according to the institution's guidelines and animal research principles. For in vivo tumor growth, 4×10^6 JIMT-1 cells were prepared in 150 μl of 1:1 DMEM and Matrigel (Corning, N.Y., USA), v/v) and injected into the mammary fat pads (MFP) of female nude mice. Mouse weight and tumor volume were measure daily using calipers. Tumor volumes were calculated as length×width×0.5. Once the tumor volume had reached about 100 mm^3, xenografts were randomized into groups.

JIMT-1 cells [9] = assay: Colony formation assay; assay type: cell-based, human; conditions: 12 days, versus other two inhibitors at the same doses (FIG. 6B)
Protocol: For monolayer culture, single-cell suspensions of JIMT-1 cells (3×10^3 cells/well) were plated in a 12-well plate. […] For both experimental setups, the media were refreshed every 4 days, and cells were incubated for 12 days. Cells were then fixed with 2% paraformaldehyde for 15 min and stained with 1% crystal violet (Merck, Darmstadt, Germany) for 15 min at RT. Surviving colonies (composed of at least 50 cells) were counted with ImageJ software (NIH).

[10] = Plasma protein binding by equilibrium dialysis; assay type: in vitro ADME; conditions: human, 37° C.
[11] = biological target: T2, Purified TACC3 recombinant protein (Homo sapiens, UniProt Q9Y6A5); assay: Isothermal titration calorimetry (ITC); assay type: binding; conditions: 25° C.
T2 construct: purchased Origene TP310754
Protocol: Titrations were carried out using Microcal 200 equipment (GE Healthcare, Austria) at 25° C. For each titration, 10 injections were made with 6 min spacing. The reference power was set at 2 μcal/sec, and the sample cell was continuously stirred at 500 rpm. In order to assess the binding efficiency between drug and protein, background data obtained by protein injected into buffer alone was subtracted from the experimental isotherms. The data was analyzed using Origin 7 Software provided along with the ITC200, and binding parameters such as association constant (Ka), number of binding sites (N) and enthalpy (ΔH) were calculated.

[12] = tested on: glioblastoma (GBM) xenografts; conditions: Polson et al., 2018; cited from earlier work
[13] = 5 mg/kg (oral) every two days for 30 days (FIG. 9)

COc1ccc(-c2cc(Nc3ccnc(N4CCOCC4)n3)on2)cc1 [BO-264, 3-(4-methoxyphenyl)-N-(2-morpholinopyrimidin-4-yl)isoxazol-5-amine]
solubility [1]: low solubility | GI50 [2]: < 1000 nM | stability in human liver microsomes [3]: low stability | inhibition at 10 µM ([4]; Homo sapiens, MCF-12A, 72 h, read-out: growth inhibition of MCF-12A cells): < 50% | effect on normal breast cell line ([4]; normal breast cell line): minor effects | IC50 values compared with KHS101 and SPL-B [5]: significantly lower IC50 values than the two available TACC3 inhibitors | pIC50 [6]: 6.63 | TACC3-BO-264 binding (TACC3): validated | stability in mouse liver microsomes [7]: low stability | induction of mitotic arrest, DNA damage and apoptosis markers (JIMT-1 cells [8]): at lower doses compared to other two TACC3 inhibitors; also recorded: in a dose-dependent manner | body weight of mice (JIMT-1 xenografts; 2 mg/kg (oral or i.v) or 5 mg/kg (oral) every two days for 30 days (FIG. 10B)): did not have any negative effect | tumor growth rate compared with control group (JIMT-1 xenografts; 2 mg/kg i.v every two days for 30 days (FIG. 10A)): decreased | tumor growth rate compared with control group (JIMT-1 xenografts; 2 mg/kg oral every two days for 30 days (FIG. 10A)): decreased | body weight of mice (JIMT-1 xenografts; [13]): no negative effects | tumor growth compared to SPL-B (JIMT-1 xenografts; [13]): significant reduction of tumor growth | tumor growth rate compared with control group (JIMT-1 xenografts; 5 mg/kg (oral) every two days for 30 days (FIG. 10A)): the most significant effect on tumor growth | tumor growth compared to vehicle-treated mice (JIMT-1 xenografts; 25 mg/kg oral for 23 days (FIG. 11A)): very significant reduction of tumor growth | tumor weights compared to vehicle group (JIMT-1 xenografts; 25 mg/kg oral for 23 days (FIG. 11B)): significantly lower | mice weight / tolerability (JIMT-1 xenografts; 25 mg/kg oral for 23 days (FIG. 11C)): well tolerated | average colony number of JIMT-1 cells (JIMT-1 cells [9]): significantly lower | fraction unbound [10]: 0.0113 | N (number of binding sites) [11]: 0.704 | ΔH [11]: 49290 kcal/mol | ΔS [11]: 1.65E5 cal/mol/deg | K (association constant) ([11]; titration of TACC3 into BO-264): 6.23E8

CC(C)CNc1ccnc(NCc2csc(-c3ccccc3)n2)n1 [KHS101, reference compound]
induction of mitotic arrest, DNA damage and apoptosis markers (JIMT-1 cells [8]): at considerably higher doses; also recorded: only observed at very high doses | tumor growth of glioblastoma (GBM) xenografts [12]: suppressed
